{"source": "patent US20190336519A1", "about": "“APPLICATION OF ALBIFLORIN AS INDOLEAMINE 2,3-DIOXYGENASE (IDO) INHIBITOR” (priority 2017, published 2019)", "key": {"[1]": {"tested_on": "tryptophan metabolic pathway (kynurenine-quinolinic acid / serotonin-melatonin)", "test": "Tryptophan metabolites in hippocampus of CUMS rats", "assay_type": "in vivo, rat", "conditions": "after 7 days of administration (7 mg/kg, 14 mg/kg)"}, "[2]": {"tested_on": "indoleamine 2,3-dioxygenase (IDO)", "test": "Western Blot of IDO in hippocampal tissue of chronic unpredictable mild stress (CUMS) rats", "assay_type": "in vivo, rat", "conditions": "for IDO (folds relative to Blank group): CUMS rat hippocampal tissue, Mean±SE", "excerpt": "(§1) 1. […] Western Blot was used to detect the effects of albiflorin on IDO and MT1, and the results are found in FIG. 1:\n(§2) Effects of albiflorin on indoleamine 2,3-dioxygenase (IDO) and melatonin receptors 1 (MT1) in the rat hippocampal tissue (Mean±SE)"}, "[3]": {"tested_on": "IL-6, TNF-α, CORT in mouse hippocampal tissue", "test": "ELISA of inflammatory factors and CORT in mouse hippocampal tissue after modeling with LPS", "assay_type": "in vivo", "conditions": "LPS mice, gavage 7 days", "procedure": "(§3) The mice were randomly divided into 6 groups (16 for each group): Blank group, Model group, Fluoxetine hydrochloride (a positive drug) group (10 mg/kg), Low dose of albiflorin group (3.5 mg/kg), Medium dose of albiflorin group (7 mg/kg), and High dose of albiflorin group (14 mg/kg), and administered continuously by gavage for 7 days.\n(§4) On the 7th day after administration, LPS was injected intraperitoneally (0.83 mg/kg) for modeling. At 16 h after the injection, the Open Field Test (OFT) was carried out; at 24 h after the injection, the Forced Swimming Test (FST) and Tail Suspension Test (TST) were carried out. Thereafter, the blood was taken by enucleating eyeball, and centrifuged to collect the plasma. After the mice were sacrificed, the hippocampal tissues were taken out and quickly frozen in liquid nitrogen, and stored at −80° C.\n(§5) 2. Determination of the effects of albiflorin and the positive drug fluoxetine on the concentrations of inflammatory factors IL-6, TNF-α, and PGE2, and glucocorticoid CORT in the mouse plasma and hippocampal tissue.\n(§6) The test data are shown in mean±SE, and originPro8.0 software was used for the statistical analysis of the data and plotting.\nAn ELISA assay was used to detect the levels of inflammatory factors IL-6, TNF-α and PGE2, and CORT in the mouse hippocampal tissue."}, "[4]": {"tested_on": "LPS-induced mouse inflammatory depression-like behaviors", "test": "Behavioral tests (Forced Swimming Test, Tail Suspension Test) in mice after modeling with LPS", "assay_type": "in vivo", "conditions": "High dose group (14 mg/kg), gavage 7 days, 24 h after LPS", "procedure": "as §3\n1. The behavioral tests: Forced Swimming Test (FST), Tail Suspension Test (TST) and Open Field Test (OFT)\nas §4, §6"}, "[5]": {"tested_on": "IL-6, TNF-α, CORT in mouse plasma", "test": "Levels of inflammatory factors and CORT in mouse plasma after modeling with LPS", "assay_type": "in vivo", "conditions": "LPS mice, gavage 7 days", "procedure": "as §3, §4, §5, §6"}, "IDO": {"target": "T1, IDO (Mus musculus, UniProt P28776)", "T1 construct": "ratio of kynurenine/tryptophan (KYN/TrP) in the mouse hippocampal tissue; from tissue; host or cells: mouse hippocampal tissue (LPS model)", "T1 sequence (P28776 whole entry)": "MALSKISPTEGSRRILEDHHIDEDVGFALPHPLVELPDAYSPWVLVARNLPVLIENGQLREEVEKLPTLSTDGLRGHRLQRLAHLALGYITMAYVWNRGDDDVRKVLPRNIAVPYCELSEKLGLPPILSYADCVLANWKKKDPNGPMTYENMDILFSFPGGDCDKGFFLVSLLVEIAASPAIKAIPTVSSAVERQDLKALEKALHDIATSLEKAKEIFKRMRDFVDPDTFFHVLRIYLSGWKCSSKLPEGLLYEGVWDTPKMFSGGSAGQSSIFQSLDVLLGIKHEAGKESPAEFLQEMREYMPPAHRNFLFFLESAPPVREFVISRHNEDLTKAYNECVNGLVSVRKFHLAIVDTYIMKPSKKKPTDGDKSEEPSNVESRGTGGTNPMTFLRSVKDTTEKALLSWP", "test": "Ratio of kynurenine/tryptophan (IDO activity) in mouse hippocampal tissue after modeling with LPS", "assay_type": "in vivo", "conditions": "LPS mice, gavage 7 days", "procedure": "as §3, §4\n3. Determination of the effects of albiflorin and fluoxetine on expression of IDO in the mouse hippocampal tissue.\nas §6\nThe activity of IDO in the hippocampus was expressed through the levels of KYN and TrP and the ratio of KYN/TrP."}, "[6]": {"tested_on": "melatonin receptors 1 (MT1)", "test": "Western Blot of MT1 in hippocampal tissue of chronic unpredictable mild stress (CUMS) rats", "assay_type": "in vivo, rat", "conditions": "for MT1 (folds relative to Blank group): CUMS rat hippocampal tissue, Mean±SE", "excerpt": "as §1, §2"}, "[7]": {"conditions": "CUMS rat, after 7 days of administration (7 mg/day, 14 mg/day), P<0.01"}, "[8]": {"conditions": "medium and high doses (7, 14 mg/kg)"}}, "note": "“Also recorded” adds a separate entry of the source."}
{"smiles": "C[C@]12C[C@@H](O)[C@@H]3C[C@@]1(O[C@@H]1O[C@H](CO)[C@@H](O)[C@H](O)[C@H]1O)[C@]3(COC(=O)c1ccccc1)C(=O)O2", "note": "[Albiflorin, albiflorin]", "values": [{"measurement": "ratio of kynurenine to tryptophan (KYN/TrP)", "setting": "[1]; CUMS rat hippocampus", "value": "downregulated significantly"}, {"measurement": "level of kynurenine in the rat hippocampus", "setting": "[1]; CUMS rat, P<0.01", "value": "decreased significantly"}, {"measurement": "level of melatonin in the hippocampus", "setting": "[1]; CUMS rat, P<0.01", "value": "increased significantly"}, {"measurement": "level of quinolinic acid in the rat hippocampus", "setting": "[1]; CUMS rat, P<0.01", "value": "decreased significantly"}, {"measurement": "level of serotonin in the hippocampus", "setting": "[1]; CUMS rat, P<0.01", "value": "increased significantly"}, {"measurement": "IDO (folds relative to Blank group)", "setting": "[2]; 3.5 mg/kg", "value": "1.46 ± 0.014 folds relative to Blank group"}, {"measurement": "IDO (folds relative to Blank group)", "setting": "[2]; 7 mg/kg", "value": "1.02 ± 0.010 folds relative to Blank group"}, {"measurement": "IDO (folds relative to Blank group)", "setting": "[2]; 14 mg/kg", "value": "0.80 ± 0.008 folds relative to Blank group"}, {"measurement": "IDO activity in the rat hippocampus", "setting": "[2]; [7]", "value": "significantly inhibited"}, {"measurement": "level of IL-6 in the mouse hippocampal tissue compared with Model group", "setting": "[3]; High dose group (14 mg/kg)", "value": "significantly decreased"}, {"measurement": "level of TNF-α in the mouse hippocampal tissue compared with Model group", "setting": "[3]; High dose group (14 mg/kg)", "value": "significantly decreased"}, {"measurement": "level of CORT in the hippocampal tissue", "setting": "[3]", "value": "substantially decreased"}, {"measurement": "immobility time in the Tail Suspension Test compared with Model group", "setting": "[4]", "value": "significant difference"}, {"measurement": "concentration of CORT in the mouse plasma", "setting": "[5]", "value": "substantially decrease"}, {"measurement": "level of IL-6 in the mouse plasma", "setting": "[5]; [8]", "value": "substantially decreased"}, {"measurement": "level of TNF-α in the mouse plasma", "setting": "[5]; [8]", "value": "substantially decreased"}, {"measurement": "activity of IDO in the mouse hippocampal tissue", "setting": "IDO; High dose (14 mg/kg), 14 mg/kg", "value": "significantly inhibited; also recorded: decrease"}, {"measurement": "ratio of kynurenine/tryptophan (KYN/TrP) in the mouse hippocampal tissue compared with Model group", "setting": "IDO; High dose group (14 mg/kg), P<0.05", "value": "decreased"}, {"measurement": "MT1 (folds relative to Blank group)", "setting": "[6]; 3.5 mg/kg", "value": "1.37 ± 0.013 folds relative to Blank group"}, {"measurement": "MT1 (folds relative to Blank group)", "setting": "[6]; 7 mg/kg", "value": "1.39 ± 0.0014 folds relative to Blank group"}, {"measurement": "MT1 (folds relative to Blank group)", "setting": "[6]; 14 mg/kg", "value": "1.39 ± 0.014 folds relative to Blank group"}, {"measurement": "melatonin receptors 1 (MT1) in the rat hippocampus", "setting": "[6]; [7]", "value": "increased significantly"}]}
{"smiles": "CNCCC(Oc1ccc(C(F)(F)F)cc1)c1ccccc1", "note": "(stereo not shown) [Fluoxetine, fluoxetine, reference compound]", "values": [{"measurement": "IDO (folds relative to Blank group)", "setting": "[2]; 10 mg/kg", "value": "1.29 ± 0.014 folds relative to Blank group"}, {"measurement": "LPS-induced activation/overexpression of IDO in the hippocampus compared with Model group", "setting": "IDO; 10 mg/kg", "value": "failed to be corrected"}, {"measurement": "MT1 (folds relative to Blank group)", "setting": "[6]; 10 mg/kg", "value": "0.50 ± 0.005 folds relative to Blank group"}]}
